In patent US11213030B2, “4-(3,4-dihydronaphth-1-yl or 2H-chromen-4-yl)-5-hydroxy-2H-pyradizin-3-ones as herbicides” (FMC Corporation, priority 2017, dated 2022):

Tests used:
Format in all cases: in vivo
kochia (Kochia scoparia) [1] = test: Test A preemergence, kochia; settings: 0 to 100 scale
Text: (§1) Seeds of plant species selected from barnyardgrass (Echinochloa crus-galli), kochia (Kochia scoparia), ragweed (common ragweed, Ambrosia elatior), ryegrass, It. (Italian ryegrass, Lolium multiflorum), foxtail, green (green foxtail, Setaria viridis), and pigweed (Amaranthus retroflexus) were planted into a blend of loam soil and sand and treated preemergence with a directed soil spray using test chemicals formulated in a non-phytotoxic solvent mixture which included a surfactant. At the same time, plants selected from these weed species and also wheat (Triticum aestivum), corn (Zea mays), blackgrass (Alopecurus myosuroides), and galium (catchweed bedstraw, Galium aparine) were planted in pots containing the same blend of loam soil and sand and treated with postemergence applications of test chemicals formulated in the same manner. Plants ranged in height from 2 to 10 cm and were in the one- to two-leaf stage for the postemergence treatment. Treated plants and untreated controls were maintained in a greenhouse for approximately 10 d, after which time all treated plants were compared to untreated controls and visually evaluated for injury. Plant response ratings, summarized in Table A, are based on a 0 to 100 scale where 0 is no effect and 100 is complete control. A dash (-) response means no test result.

[2] = tested on: galium (catchweed bedstraw, Galium aparine); test: Test A postemergence, galium; settings: 0 to 100 scale
Text: as §1

[3] = tested on: pigweed (Amaranthus retroflexus); test: Test A preemergence, pigweed; settings: 0 to 100 scale
Text: as §1

[4] = tested on: sedge, umbrella (small-flower umbrella sedge, Cyperus difformis); test: Test B flooded paddy test, umbrella sedge; settings: Flood, 250 g ai/ha applied to paddy water, 2-leaf stage, 13 to 15 d; scale of 0 to 100 where 0 is no effect and 100 is complete control
Experimental: (§2) Plant species in the flooded paddy test selected from rice (Oryza sativa), sedge, umbrella (small-flower umbrella sedge, Cyperus difformis), ducksalad (Heteranthera limosa), and barnyardgrass (Echinochloa crus-galli) were grown to the 2-leaf stage for testing. At the time of treatment, test pots were flooded to 3 cm above the soil surface, treated by application of test compounds directly to the paddy water, and then maintained at that water depth for the duration of the test. Treated plants and controls were maintained in a greenhouse for 13 to 15 d, after which time all species were compared to controls and visually evaluated. Plant response ratings, summarized in Table B, are based on a scale of 0 to 100 where 0 is no effect and 100 is complete control. A dash (-) response means no test result.

[5] = tested on: foxtail, green (green foxtail, Setaria viridis); test: Test A preemergence, green foxtail; settings: 31 g ai/ha, 0 to 100 scale
Text: as §1

kochia (Kochia scoparia) [6] = test: Test A postemergence, kochia; settings: 0 to 100 scale
Text: as §1

[7] = tested on: barnyardgrass (Echinochloa crus-galli); test: Test A postemergence, barnyardgrass; settings: 0 to 100 scale
Text: as §1

[8] = tested on: ragweed (common ragweed, Ambrosia elatior); test: Test A postemergence, ragweed; settings: 0 to 100 scale
Text: as §1

[9] = tested on: barnyardgrass (Echinochloa crus-galli); test: Test B flooded paddy test, barnyardgrass; settings: Flood, 250 g ai/ha applied to paddy water, 2-leaf stage, 13 to 15 d; scale of 0 to 100 where 0 is no effect and 100 is complete control
Experimental: as §2

[10] = tested on: wheat (Triticum aestivum); test: Test A postemergence, wheat; settings: 0 to 100 scale
Text: as §1

[11] = tested on: ducksalad (Heteranthera limosa); test: Test B flooded paddy test, ducksalad; settings: Flood, 250 g ai/ha applied to paddy water, 2-leaf stage, 13 to 15 d; scale of 0 to 100 where 0 is no effect and 100 is complete control
Experimental: as §2

Foxtail, Giant [12] = test: Test A postemergence, giant foxtail; settings: 0 to 100 scale
Foxtail, Giant [13] = test: Test A preemergence, giant foxtail; settings: 0 to 100 scale
[14] = tested on: blackgrass (Alopecurus myosuroides); test: Test A postemergence, blackgrass; settings: 0 to 100 scale
Text: as §1

[15] = tested on: barnyardgrass (Echinochloa crus-galli); test: Test A preemergence, barnyardgrass; settings: 0 to 100 scale
Text: as §1

corn (Zea mays) = test: Test A postemergence, corn; settings: 0 to 100 scale
Text: as §1

rice (Oryza sativa) = test: Test B flooded paddy test, rice; settings: Flood, 250 g ai/ha applied to paddy water, 2-leaf stage, 13 to 15 d; scale of 0 to 100 where 0 is no effect and 100 is complete control
Experimental: as §2

[16] = tested on: pigweed (Amaranthus retroflexus); test: Test A postemergence, pigweed; settings: 0 to 100 scale
Text: as §1

[17] = tested on: ryegrass, It. (Italian ryegrass, Lolium multiflorum); test: Test A postemergence, Italian ryegrass; settings: 0 to 100 scale; for Plant response rating, Ryegrass, Italian: 500 g ai/ha
Text: as §1

[18] = tested on: ragweed (common ragweed, Ambrosia elatior); test: Test A preemergence, ragweed; settings: 0 to 100 scale
Text: as §1

[19] = tested on: ryegrass, It. (Italian ryegrass, Lolium multiflorum); test: Test A preemergence, Italian ryegrass; settings: 0 to 100 scale
Text: as §1

Structure (SMILES) | Plant response rating, Kochia (kochia (Kochia scoparia) [1]; 125 g ai/ha) | Plant response rating, Galium ([2]; 125 g ai/ha) | Plant response rating, Pigweed ([3]; 125 g ai/ha) | Plant response rating, Sedge, Umbrella [4] | Plant response rating, Kochia (kochia (Kochia scoparia) [6]; 125 g ai/ha) | Plant response rating, Barnyardgrass ([7]; 125 g ai/ha) | Plant response rating, Ragweed ([8]; 125 g ai/ha) | Plant response rating, Barnyardgrass [9] | Plant response rating, Wheat ([10]; 125 g ai/ha) | Plant response rating, Ducksalad [11] | Plant response rating, Foxtail, Giant (Foxtail, Giant [12]; 125 g ai/ha) | Plant response rating, Foxtail, Giant (Foxtail, Giant [13]; 125 g ai/ha) | Plant response rating, Blackgrass ([14]; 125 g ai/ha) | Plant response rating, Barnyardgrass ([15]; 125 g ai/ha) | Plant response rating, Corn (corn (Zea mays); 125 g ai/ha) | Plant response rating, Rice (rice (Oryza sativa)) | Plant response rating, Pigweed ([16]; 125 g ai/ha) | Plant response rating, Ryegrass, It. ([17]; 125 g ai/ha) | Plant response rating, Ragweed ([18]; 125 g ai/ha) | Plant response rating, Ryegrass, It. ([19]; 125 g ai/ha) | also measured
CC1=C(c2c(O)c(Cl)nn(C)c2=O)c2cc(C)ccc2CC1 [Compound 8] | 10 | 90 | 100 | 95 | 50 | 80 | 100 | 60 | 0 | 90 | 80 | 70 | 30 | 60 | 20 | 0 | 100 | 80 | 30 | 10 | Plant response rating, Galium ([2]; 31 g ai/ha): 90; Plant response rating, Pigweed ([3]; 31 g ai/ha): 10; Plant response rating, Foxtail, Green [5]: 0; Plant response rating, Kochia (kochia (Kochia scoparia) [6]; 31 g ai/ha): 40; Plant response rating, Barnyardgrass ([7]; 31 g ai/ha): 50; Plant response rating, Ragweed ([8]; 31 g ai/ha): 80; Plant response rating, Wheat ([10]; 31 g ai/ha): 0; Plant response rating, Foxtail, Giant (Foxtail, Giant [12]; 31 g ai/ha): 60; Plant response rating, Blackgrass ([14]; 31 g ai/ha): 20; Plant response rating, Barnyardgrass ([15]; 31 g ai/ha): 0; Plant response rating, Corn (corn (Zea mays); 31 g ai/ha): 0; Plant response rating, Pigweed ([16]; 31 g ai/ha): 90; Plant response rating, Ryegrass, It. ([17]; 31 g ai/ha): 40; Plant response rating, Ragweed ([18]; 31 g ai/ha): 0; Plant response rating, Ryegrass, It. ([19]; 31 g ai/ha): 0
Cc1nn(C)c(=O)c(C2=CCC(C)(C)c3ccccc32)c1O [Compound 7] | 0 | 50 | 0 | 0 | 30 | 10 | 0 | 0 | 0 | 0 | 0 | 0 | 10 | 0 | 0 | 0 | 80 | 30 | 0 | 0 | Plant response rating, Kochia (kochia (Kochia scoparia) [1]; 500 g ai/ha): 0; Plant response rating, Galium ([2]; 500 g ai/ha): 70; Plant response rating, Pigweed ([3]; 500 g ai/ha): 10; Plant response rating, Kochia (kochia (Kochia scoparia) [6]; 500 g ai/ha): 70; Plant response rating, Barnyardgrass ([7]; 500 g ai/ha): 30; Plant response rating, Ragweed ([8]; 500 g ai/ha): 70; Plant response rating, Wheat ([10]; 500 g ai/ha): 0; Plant response rating, Foxtail, Giant (Foxtail, Giant [12]; 500 g ai/ha): 10; Plant response rating, Foxtail, Giant (Foxtail, Giant [13]; 500 g ai/ha): 0; Plant response rating, Blackgrass ([14]; 500 g ai/ha): 10; Plant response rating, Barnyardgrass ([15]; 500 g ai/ha): 0; Plant response rating, Corn (corn (Zea mays); 500 g ai/ha): 10; Plant response rating, Pigweed ([16]; 500 g ai/ha): 90; Plant response rating, Ryegrass, Italian [17]: 80; Plant response rating, Ragweed ([18]; 500 g ai/ha): 0; Plant response rating, Ryegrass, It. ([19]; 500 g ai/ha): 10
COc1c(C)nn(C)c(=O)c1C1=CCC(C)(C)c2ccccc21 [Compound 6] | 0 | 0 | 0 | 0 | 0 | 0 | 0 | 0 | 0 | 0 | 0 | 0 | 0 | 0 | 0 | 0 | 0 | – | 0 | 0 | Plant response rating, Kochia (kochia (Kochia scoparia) [1]; 500 g ai/ha): 40; Plant response rating, Galium ([2]; 500 g ai/ha): 0; Plant response rating, Pigweed ([3]; 500 g ai/ha): 0; Plant response rating, Kochia (kochia (Kochia scoparia) [6]; 500 g ai/ha): 0; Plant response rating, Barnyardgrass ([7]; 500 g ai/ha): 0; Plant response rating, Ragweed ([8]; 500 g ai/ha): 20; Plant response rating, Wheat ([10]; 500 g ai/ha): 0; Plant response rating, Foxtail, Giant (Foxtail, Giant [12]; 500 g ai/ha): 0; Plant response rating, Foxtail, Giant (Foxtail, Giant [13]; 500 g ai/ha): 0; Plant response rating, Blackgrass ([14]; 500 g ai/ha): 20; Plant response rating, Barnyardgrass ([15]; 500 g ai/ha): 30; Plant response rating, Corn (corn (Zea mays); 500 g ai/ha): 0; Plant response rating, Pigweed ([16]; 500 g ai/ha): 0; Plant response rating, Ryegrass, Italian [17]: 0; Plant response rating, Ragweed ([18]; 500 g ai/ha): 0; Plant response rating, Ryegrass, It. ([19]; 500 g ai/ha): 0
